In patent US4447422A, “Penicillins and compositions containing them” (Beecham Group p.1.c., priority 1981, dated 1984) one finds MIC data, which are given here for eight compounds.

What all share (assay): antibacterial activity (MIC)
What all share (assay type): cell-based

The test system of one test is Serratia marcescens US32. The conditions noted are these: Table 1.
In the next test the test system is B subtilis. The conditions noted are these: Table 1.
In a further test the test system is Ps aeruginosa Dalgleish. The conditions noted are these: Table 1; Ps aeruginosa Dalgleish 10^-2.
A further test has as its system E coli ESS. The conditions noted are these: Table 1.
The subject of a further test is P rettgeri. The conditions noted are these: Table 1.
The test system of another test is Enterobacter cloacae N1. The conditions noted are these: Table 1.
The next test concerns N catarrhalis 1502. The conditions noted are these: Table 1.
A further test relates to P morganii. The conditions noted are these: Table 1.
A further test has as its system Klebsiella aerogenes A. The conditions noted are these: Table 1.
The subject of a further test is E coli JT4. The conditions noted are these: Table 1.
Another test concerns E coli JT425. The conditions noted are these: Table 1.
Another test has as its system P mirabilis 889. The conditions noted are these: Table 1.
The subject of a further test is P mirabilis C977. The conditions noted are these: Table 1.
Another test deals with E coli NCTC 10418.
Another test deals with Ps aeruginosa 10662. The conditions noted are these: Table 1.
The subject of another test is β-Haemolytic Strep CN10. The conditions noted are these: Table 1.
Another test has as its system Staph aureus Oxford.
For another test, the system named is Step faecalis I. The conditions noted are these: Table 1.
The test system of another test is Staph aureus Russell. The conditions noted are these: Staphylococcus aureus, Table 1.
The mark [1] stands for this setting: Escherichia coli, NCTC10418, Table 2, gram negative organism E. coli NCTC 10418.
The mark [2] stands for this setting: Staphylococcus aureus, Table 1, Staph aureus Oxford, read-out: MIC.
[3] abbreviates: Table 2, gram positive organism Staph. aureus Oxford.
Setting [4] is: Staphylococcus aureus, Table 2, gram positive organism Staph. aureus Oxford, read-out: MIC.

Structures are written as SMILES. In brackets after ≈: the same amount, converted by molar mass. Counter-ions that a name gives are not always drawn. Like-named read-outs stand apart in the source and are kept apart here.

One may read the MIC as the smallest concentration in the dilution series that meets the test's criterion for growth inhibition. Turning to `CCSCCNc1ncc(C(=O)N[C@@H](C(=O)N[C@@H]2C(=O)N3[C@@H]2SC(C)(C)[C@@H]3C(=O)O)c2ccccc2)c(O)n1` [Example 2, 6β-[D-2-(2-[2-Ethylthioethyl-1-amino]-4-hydroxypyrimidine-5-carbonylamino)-2-phenyl]acetamido penicillanic acid], the MIC against Serratia marcescens US32 was 12.5 µg/mL (≈ 21.8 µM); with B subtilis it was 1.25 µg/mL (≈ 2.18 µM); in the test on Ps aeruginosa Dalgleish, 125 µg/mL (≈ 218 µM); in the test with E coli ESS, under 0.01 µg/mL; with P rettgeri, 12.5 µg/mL (≈ 21.8 µM); with Enterobacter cloacae N1, 12.5 µg/mL (≈ 21.8 µM). The MIC in the test with N catarrhalis 1502 was under 0.01 µg/mL; in the test on P morganii, 25 µg/mL (≈ 43.5 µM); in the test on Klebsiella aerogenes A, 12.5 µg/mL (≈ 21.8 µM); against E coli JT4, over 500 µg/mL; with E coli JT425, 50 µg/mL (≈ 87 µM); with P mirabilis 889 it was over 500 µg/mL. The MIC was 2.5 µg/mL (≈ 4.35 µM) against P mirabilis C977; 2.5 µg/mL (≈ 4.35 µM) in the test with E coli NCTC 10418 (setting [1]); 2.5 µg/mL (≈ 4.35 µM) in the test on E coli NCTC 10418 (Table 1, E coli NCTC 10418); 5 µg/mL (≈ 8.7 µM) with Ps aeruginosa 10662 (Ps aeruginosa 10662); 2.5 µg/mL (≈ 4.35 µM) against Ps aeruginosa 10662 (Ps aeruginosa 10662 10^-2); under 0.01 µg/mL in the test with β-Haemolytic Strep CN10. Further, the MIC turned out to be 1.25 µg/mL (≈ 2.18 µM) in the test on Staph aureus Oxford (setting [2]), 1.25 µg/mL (≈ 2.18 µM) with Staph aureus Oxford (setting [3]), 5 µg/mL (≈ 8.7 µM) against Step faecalis I and 125 µg/mL (≈ 218 µM) against Staph aureus Russell.
In the case of `CCCCNc1ncc(C(=O)N[C@@H](C(=O)N[C@@H]2C(=O)N3[C@@H]2SC(C)(C)[C@@H]3C(=O)O)c2ccccc2)c(O)n1` [Example 16, 6β-[D-2-(2-n-Butylamino-4-hydroxypyrimidine-5-carbonylamino)-2-phenyl] acetamido penicillanic acid, disodium salt], the MIC against Serratia marcescens US32 was 12.5 µg/mL; against B subtilis it was 1.2 µg/mL; against Ps aeruginosa Dalgleish, 125 µg/mL; against E coli ESS, 0.02 µg/mL; against P rettgeri, 5 µg/mL; with Enterobacter cloacae N1, 5 µg/mL. The MIC was 0.02 µg/mL in the test on N catarrhalis 1502; 5 µg/mL in the test on P morganii; 12.5 µg/mL in the test with Klebsiella aerogenes A; over 500 µg/mL against E coli JT4; 50 µg/mL against E coli JT425; over 500 µg/mL in the test on P mirabilis 889. Also, the MIC stood at 2.5 µg/mL against P mirabilis C977; 1.2 µg/mL against E coli NCTC 10418 (setting [1]); 1.5 µg/mL with E coli NCTC 10418 (Table 1, E coli NCTC 10418); 5 µg/mL in the test with Ps aeruginosa 10662 (Ps aeruginosa 10662); 0.02 µg/mL with β-Haemolytic Strep CN10; 1.2 µg/mL with Staph aureus Oxford (setting [2]). The MIC with Staph aureus Oxford (setting [3]) stood at 1.2 µg/mL; in the test on Step faecalis I, 5 µg/mL; in the test on Staph aureus Russell it was 125 µg/mL.
Take `CC1(C)S[C@@H]2[C@H](NC(=O)[C@H](NC(=O)c3cnc(NCCCc4ccccc4)nc3O)c3ccccc3)C(=O)N2[C@H]1C(=O)O` [Example 3, 6β-[D-2-(2-(3-phenylpropyl-1-amino)-4-hydroxypyrimidine-5-carbonylamino)-2-phenyl] acetamido penicillanic acid]: the MIC against E coli NCTC 10418 (setting [1]) turned out to be 5 µg/mL (≈ 8.27 µM); in the test with Staph aureus Oxford (setting [4]), 1.2 µg/mL (≈ 1.98 µM).
On to `CCCCNc1ncc(C(=O)N[C@@H](C(=O)N[C@@H]2C(=O)N3[C@@H]2SC(C)(C)[C@@H]3C(=O)O)c2ccc(O)cc2)c(O)n1` [Example 17, 6β-[D-2-(2-n-Butylamino-4-hydroxypyrimidine-5-carbonylamino)-2-(4-hydroxyphenyl)] acetamido penicillanic acid, disodium salt], for which the MIC against E coli NCTC 10418 (setting [1]) turned out to be 5 µg/mL; in the test on Staph aureus Oxford (setting [4]), 2.5 µg/mL.
Turning to `CCCNc1ncc(C(=O)N[C@@H](C(=O)N[C@@H]2C(=O)N3[C@@H]2SC(C)(C)[C@@H]3C(=O)O)c2ccccc2)c(O)n1` [Example 15, 6β-[D-2-(2-n-propylamino-4-hydroxypyrimidine-5-carbonylamino)-2-phenyl] acetamido penicillanic acid, disodium salt], the results for the MIC in the test with E coli NCTC 10418 (setting [1]) and with Staph aureus Oxford (setting [4]) were 2.5 µg/mL and 0.5 µg/mL, respectively.
As for `CC1(C)S[C@@H]2[C@H](NC(=O)[C@H](NC(=O)c3cnc(NCc4ccccc4)nc3O)c3ccccc3)C(=O)N2[C@H]1C(=O)O` [Example 1, 6β-[D-2-(2-benzylamino-4-hydroxypyrimidine-5-carbonylamino)-2-phenyl]acetamido penicillanic acid], the MIC in the test with Serratia marcescens US32 is 10 µg/mL (≈ 17.3 µM); in the test on B subtilis, 2.5 µg/mL (≈ 4.34 µM); in the test with Ps aeruginosa Dalgleish it was 50 µg/mL (≈ 86.7 µM); against E coli ESS, under 0.02 µg/mL; with P rettgeri it was 10 µg/mL (≈ 17.3 µM); in the test with Enterobacter cloacae N1, 10 µg/mL (≈ 17.3 µM). Moreover, the MIC is under 0.02 µg/mL with N catarrhalis 1502; 50 µg/mL (≈ 86.7 µM) with P morganii; 50 µg/mL (≈ 86.7 µM) in the test on Klebsiella aerogenes A; over 100 µg/mL in the test on E coli JT4; 25 µg/mL (≈ 43.4 µM) with E coli JT425; over 100 µg/mL against P mirabilis 889. In addition, the minimal inhibitory concentration (MIC) was 2.5 µg/mL (≈ 4.34 µM) with P mirabilis C977; 2.5 µg/mL (≈ 4.34 µM) against E coli NCTC 10418 (setting [1]); 2.5 µg/mL (≈ 4.34 µM) against E coli NCTC 10418 (Table 1, E coli NCTC 10418); 5 µg/mL (≈ 8.67 µM) in the test with Ps aeruginosa 10662 (Ps aeruginosa 10662); 2.5 µg/mL (≈ 4.34 µM) against Ps aeruginosa 10662 (Ps aeruginosa 10662 10^-2); under 0.02 µg/mL with β-Haemolytic Strep CN10. The MIC in the test with Staph aureus Oxford (setting [2]) is 0.5 µg/mL (≈ 0.867 µM); with Staph aureus Oxford (setting [3]) it was 0.5 µg/mL (≈ 0.867 µM); against Step faecalis I it was 5 µg/mL (≈ 8.67 µM); against Staph aureus Russell, 50 µg/mL (≈ 86.7 µM).
Consider `C=CCNc1ncc(C(=O)N[C@@H](C(=O)N[C@@H]2C(=O)N3[C@@H]2SC(C)(C)[C@@H]3C(=O)O)c2ccccc2)c(O)n1` [Example 21, 6β-[D-2-(2-Allylamino-4-hydroxypyrimidine-5-carbonylamino)2-phenyl] acetamido penicillanic acid, disodium salt], for which the MIC with E coli NCTC 10418 (setting [1]) was 5 µg/mL; in the test with Staph aureus Oxford (setting [4]), 0.2 µg/mL.
`CNc1ncc(C(=O)N[C@@H](C(=O)N[C@@H]2C(=O)N3[C@@H]2SC(C)(C)[C@@H]3C(=O)O)c2ccccc2)c(O)n1` [Example 11, 6β-D-2-(2-Methylamino-4-hydroxypyrimidine-5-carbonylamino)-2-phenyl] acetamido penicillanic acid, disodium salt]: the MIC worked out at 25 µg/mL in the test on E coli NCTC 10418 (setting [1]) and 2.5 µg/mL in the test on Staph aureus Oxford (setting [4]).
